Like-named read-outs stand apart in the source and are kept apart here.

The data set can be described thus: Bioavailability trial of nicardipine in rhesus monkeys: nasal composition compared with oral route (gastric tube), plasma levels by gas chromatography. The class given is in vivo. To be noted: rhesus monkey; for AUC(0-t) at 24 h: read-out: AUC 0-24 h (area under the curve); for Tmax: read-out: T max (time to obtain C max). The procedure:
This activity has been confirmed by standard bioavailability trials wherein nasal pharmaceutical compositions of the invention are compared with other conventional compositions and blood levels of drug are measured. In one trial, a nasal composition of the invention comprising 4 mg nicardipine hydrochloride per ml of distilled water has been administered nasally to rhesus monkeys (weight from 7 to 12 kg). A dose of 0.5 ml of this composition is sprayed each morning into each nostril. Blood samples are taken up 15 minutes, 30 minutes, 1 hour, 2 hours, 3 hours, 4 hours, 6 hours, 8 hours and 24 hours after administration and treated with lithium heparin. The treated blood samples are centrifuged and the concentration of nicardipine in the plasma is determined in conventional manner by converting the nicardipine into a corresponding pyridine derivative and determination by gas chromatographic techniques. The same animals are also treated in another similar trial with orally administered nicardipine at a dose of 20 mg by mean of a gastric tube.

Where [1] appears, read: oral route (gastric tube), 20 mg.

`COC(=O)C1=C(C)NC(C)=C(C(=O)OCCN(C)Cc2ccccc2)C1c1cccc([N+](=O)[O-])c1` (stereo not shown) [nicardipine]: under “nasal route, 4 mg”, the AUC(0-t) at 24 h was determined as 192 ± 36.3 ng·h/mL and the Tmax turned out to be 0.4 ± 0.1 h. Further, under setting [1], the AUC(0-t) at 24 h was 457 ± 86.6 ng·h/mL and the Tmax came out at 2.1 ± 0.5 h.

For the origin of these results see patent publication US4885305A, “Nasal compositions” (Yamanouchi Pharmaceutical Co., Ltd., priority 1984, dated 1989).
